The values below come from patent US11952611B2, “Methods and systems for detection of antibiotic resistance” (Laboratory Corporation of America Holdings, priority 2017, dated 2024).

Structures are written as SMILES.

In the assay the test system is MSSA. Description: Recombinant phage luciferase assay, oxacillin vs cefoxitin (Table 1), MSSA strains. It is filed as cell-based, Staphylococcus aureus. The procedure: Bacterial strains were serially diluted to approximately 1×10^3 CFU/mL and transferred to a 96-well plate at 135 μL per well. 15 μL of oxacillin or cefoxitin were added to the wells to reach a final concentration of 1.0 μg/mL or 2.0 μg/mL of oxicillin or 2.0 μg/mL, 4.0 μg/mL, 8.0 μg/mL, or 10.0 μg/mL of cefoxitin. The plate was then sealed and incubated at 37° C. for 2 hours. 10 μL of recombinant phage (1.6×10^8 pfu/mL) was added to each well. The plate was then re-sealed and incubated at 37° C. for 2 hours. A master mix was made containing 15 μL 5× lysis buffer, 50 μL luciferase assay buffer, and 1 μL luciferase substrate per well. 65 μL of master mix was added to each well. Luminescence from the reactions was read on a GLOMAX® Navigator and relative luminal units (RLU) for each reaction were analyzed. RLU values three times greater than an established background RLU level for LB (>750 RLU) were considered positive. The results, shown in Table 1, indicate that the recombinant phage are capable of detecting the tested bacterial strains.

[1] abbreviates: strain 12600 MSSA, detected CFU 389.
The mark [2] stands for this setting: strain AR0484 MSSA, detected CFU 153.
[3] abbreviates: strain AR0488 MSSA, detected CFU 285.
Where [4] appears, read: strain AR0491 MSSA, detected CFU 300.

Take `CO[C@@]1(NC(=O)Cc2cccs2)C(=O)N2C(C(=O)O)=C(COC(N)=O)CS[C@@H]21` [Cefoxitin, cefoxitin]: where the note is “2 ug/mL”, the “detection after incubation with cefoxitin” value is on record as “selective loss of MSSA detection” and the “susceptibility of MSSA strains” value is listed as “susceptible”. Further, under setting [1], the “Cefoxitin (RLU) 2 ug/mL” value is given as 797 RLU, the “Cefoxitin (RLU) 4 ug/mL” value amounted to 475 RLU, the “Cefoxitin (RLU) 8 ug/mL” value amounted to 332 RLU and the “Cefoxitin (RLU) 10 ug/mL” value was determined as 277 RLU. Further, under setting [2], the “Cefoxitin (RLU) 2 ug/mL” value is 227 RLU, the “Cefoxitin (RLU) 4 ug/mL” value is 195 RLU, the “Cefoxitin (RLU) 8 ug/mL” value stood at 197 RLU and the “Cefoxitin (RLU) 10 ug/mL” value is given as 204 RLU. Further, under setting [3], the “Cefoxitin (RLU) 2 ug/mL” value is 254 RLU, the “Cefoxitin (RLU) 4 ug/mL” value is on record as 220 RLU, the “Cefoxitin (RLU) 8 ug/mL” value is on record as 213 RLU and the “Cefoxitin (RLU) 10 ug/mL” value came to 229 RLU. Under setting [4], the “Cefoxitin (RLU) 2 ug/mL” value was 207 RLU, the “Cefoxitin (RLU) 4 ug/mL” value came to 234 RLU, the “Cefoxitin (RLU) 8 ug/mL” value came to 187 RLU and the “Cefoxitin (RLU) 10 ug/mL” value is on record as 191 RLU.
